# Legend:
# [1] = target: nNOS (Rattus norvegicus, UniProt P29476); assay: NOS inhibition assay (literature protocols), neuronal isoform; type: biochemical; conditions: for potency (in words): comment on Table 2
# From the text: Compounds 3a (not shown, below), 4a, 3c, and 4c were synthesized compounds for purpose of illustration, and 4a, 3c and 4c have been tested using literature protocols. (See, e.g., example 51 of the aforementioned incorporated '790 patent, example 12 of co-pending application Ser. No. 13/250,554 filed Sep. 30, 2011, also incorporated herein by reference in its entirety and, respectively, the references cited therein.) The activities are shown in Table 2.
# [2] = target: iNOS (Mus musculus, UniProt P29477); assay: NOS inhibition assay (literature protocols), inducible isoform; type: biochemical; conditions: for selectivity i/n: ratio KI iNOS / KI nNOS
# [3] = target: eNOS (Bos taurus, UniProt P29473); assay: NOS inhibition assay (literature protocols), endothelial isoform; type: biochemical; conditions: for selectivity e/n: ratio KI eNOS / KI nNOS
# [4] = pKa of the free azole ring of the side chain; cited from earlier work
Structure (SMILES),Ki [1] [µM],potency (in words) [1],Ki [2] [µM],selectivity i/n [2],Ki [3] [µM],selectivity e/n [3],approximate ring pKa [4]
Cc1cc(N)nc(C[C@@H]2CNC[C@@H]2OCCNCCc2nccs2)c1 [Compound 3c],0.716,highly potent,23.1,32.3,0.058,0.081,
NCCc1c[nH]cn1 [Compound 5a],,,,,,,7.1
Cc1cc(N)nc(C[C@H]2CNC[C@H]2OCCNCCc2c[nH]cn2)c1 [Compound 4a],1.18,moderate potency,15,12.7,4.23,3.58,
Cn1cncc1CCN [Compound 5f],,,,,,,>7.1
NCCn1ccnc1 [Compound 5e],,,,,,,>7.1
Cc1cc(N)nc(C[C@H]2CNC[C@H]2OCCNCCc2nccs2)c1 [Compound 4c],0.044,moderate potency,34.4,782,9.81,223,
Cn1cnc(CCN)c1 [Compound 5g],,,,,,,>7.1
NCCc1nccs1 [Compound 5c],,,,,,,2.5

# Reference: US8618143B1, “Selective neuronal nitric oxide synthase inhibitors with azole substituents” (Northwestern University, priority 2010, dated 2013)
